Common to all, as to assay: NCI anticancer screen, dose series, 48 h
Experiment [1] deals with DU-145.
The subject of experiment [2] is MCF7.
For experiment [3], the system named is TK-10.
Experiment [4] concerns SK-OV-3.
The test system of experiment [5] is MDA-N.
Experiment [6] has as its system COLO 205.
For experiment [7], the system named is CAKI-1.
Experiment [8] has as its system HCT-116.
The test system of experiment [9] is ACHN.
The subject of experiment [10] is SW-620.
In experiment [11] the test system is EKVX.
The test system of experiment [12] is HT-29.
The subject of experiment [13] is SF-539.
The subject of experiment [14] is UACC-62.
Experiment [15] concerns HCT-15.
Experiment [16] concerns OVCAR-4.
Experiment [17] deals with RXF 393.
Experiment [18] relates to CCRF-CEM.

The values that follow come from ChEMBL document CHEMBL1201862, “PubChem BioAssay data set” (2004).

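Assay format: 96-well plates, 48-hour exposure. At the GI50, growth is halved.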 Calls of active or inactive are those of the source. Cut-off read from the data, not from the text of the source: active = GI50 up to about 1.1 µM and inactive = higher.

For the molecule `Cc1ccc2c(c1)OC1Nc3ccccc3C1=C2O` (stereo unspecified), the GI50 in experiment [1] was 25.5 µM (inactive); in [2], 17.2 µM (inactive); in experiment [3], 22.9 µM (inactive); in [4] it was 13.9 µM (inactive); in [5], 24.7 µM (inactive); in [6] it was 14.8 µM (inactive). In addition, the GI50 in [7] was 23.2 µM (inactive); in experiment [8], 24.8 µM (inactive); in experiment [9], 21.4 µM (inactive); in experiment [10] it was 29.2 µM (inactive); in experiment [11], 17.4 µM (inactive); in [12] it was 30 µM (inactive). Moreover, the GI50 was 20.1 µM (inactive) in [13]; 15.9 µM (inactive) in experiment [14]; 25.1 µM in experiment [15]; 40.4 µM (inactive) in experiment [16]; 20.5 µM (inactive) in experiment [17].
Take `COc1ccccc1C1SCC(=O)N1c1ccc(-n2c(-c3ccccc3)nc3ccccc3c2=O)cc1` (stereo unspecified): the GI50 was 52.5 µM (inactive) in [1]; 39.1 µM (inactive) in experiment [2]; > 100 µM (inactive) in experiment [3]; > 100 µM (inactive) in experiment [4]; > 100 µM (inactive) in experiment [5]; > 100 µM (inactive) in experiment [6]. The GI50 in experiment [7] was 82 µM (inactive); in [8], 57.1 µM (inactive); in experiment [9] it was 71.8 µM (inactive); in experiment [10] it was 63.5 µM (inactive); in experiment [11] it was > 100 µM (inactive); in experiment [18] it was 44.5 µM (inactive). The GI50 is 64.1 µM (inactive) in experiment [12]; > 100 µM (inactive) in [13]; 29.2 µM (inactive) in [14]; 54.2 µM in experiment [15]; 15.8 µM (inactive) in [16].
Regarding `CN(N=O)C(=O)Nc1c[nH]c(=O)[nH]c1=O`, the GI50 in experiment [1], in experiment [2], in experiment [3], in experiment [4], in experiment [5] and in experiment [6] was > 100 µM (inactive) in each case. The GI50 in experiment [7], in [8], in experiment [9], in experiment [10], in experiment [11] and in [18] was > 100 µM (inactive) in each case. Besides, the GI50 is > 100 µM (inactive) in experiment [12]; > 100 µM (inactive) in [13]; > 100 µM (inactive) in [14]; > 100 µM in experiment [15]; > 100 µM (inactive) in experiment [16].
Take `CCC1c2[nH]c3ccccc3c2C[C@H]2C(=O)NC(CCC(=O)OC(C)(C)C)C(=O)N12` (stereo partly specified): the GI50 in [1] is > 100 µM (inactive); in [2], 42.4 µM (inactive); in experiment [3], 42.6 µM (inactive); in experiment [4] it was 63.5 µM (inactive); in [5], 51.5 µM (inactive); in [6], 32.4 µM (inactive). For the same molecule, the GI50 is > 100 µM (inactive) in [7]; 43.3 µM (inactive) in [8]; 47.4 µM (inactive) in experiment [9]; 67.3 µM (inactive) in [10]; 42.6 µM (inactive) in experiment [11]; 34 µM (inactive) in [12]. The GI50 in [14] is 66.5 µM (inactive); in [15] it was 52 µM; in experiment [16], 41.4 µM (inactive); in experiment [17], 52.7 µM (inactive).
In the case of `CC(=O)OCc1cc(OC(C)=O)c2cc3c(OC(C)=O)cccc3c(OC(C)=O)c2c1`, the GI50 in experiment [1] is 16.7 µM (inactive); in experiment [2], 12.8 µM (inactive); in [3], 12.7 µM (inactive); in experiment [4], 18.5 µM (inactive); in experiment [5], 17.1 µM (inactive); in experiment [6] it was 6.67 µM (inactive). In addition, the GI50 in [8] was 19.7 µM (inactive); in [9] it was 11.6 µM (inactive); in experiment [10] it was 12.2 µM (inactive); in [11] it was 6.7 µM (inactive); in [18], > 10 µM (inactive); in [12], 14.8 µM (inactive). Also, the GI50 in experiment [14] was 13.3 µM (inactive); in [15], 5.61 µM; in experiment [16], 17.8 µM (inactive).
On to `CC(C)(NC(=O)OCc1ccccc1)C(=O)OC(=O)C(C)(C)NC(=O)OCc1ccccc1`, for which the GI50 in experiment [1] is > 10 µM (inactive); in [2] it was > 100 µM (inactive); in experiment [4], 54.2 µM (inactive); in [5] it was 23.6 µM (inactive); in experiment [6], > 100 µM (inactive); in experiment [7], > 100 µM (inactive). Further, the GI50 in experiment [8], in experiment [9], in experiment [10], in experiment [11], in experiment [18] and in experiment [12] was > 100 µM (inactive) each time. Besides, the GI50 in [13] was > 100 µM (inactive); in experiment [14], 18.3 µM (inactive); in experiment [15] it was > 100 µM; in experiment [16] it was > 100 µM (inactive).
As for `O=C(CCC(=O)c1ccsc1)c1ccsc1`, the GI50 is > 100 µM (inactive) in experiment [1]; 74.8 µM (inactive) in [2]; > 100 µM (inactive) in experiment [3]; > 100 µM (inactive) in [4]; > 100 µM (inactive) in experiment [5]; > 100 µM (inactive) in experiment [6]. Besides, the GI50 in experiment [7], in [8], in experiment [9], in experiment [10], in [13] and in [14] was > 100 µM (inactive) in each case. The GI50 in experiment [15] was > 100 µM; in [16] it was > 100 µM (inactive); in experiment [17], > 100 µM (inactive).
`CCOC(=O)CSc1nc2ccccc2c(=O)n1N`: the GI50 in [1] was 40.9 µM (inactive); in [2] it was > 100 µM (inactive); in [3] it was 83.2 µM (inactive); in experiment [5], > 100 µM (inactive); in experiment [6], > 100 µM (inactive); in experiment [7], > 100 µM (inactive). Further, the GI50 in experiment [8] is > 100 µM (inactive); in experiment [9] it was > 100 µM (inactive); in [10] it was > 100 µM (inactive); in experiment [11], > 100 µM (inactive); in experiment [12], 68.4 µM (inactive); in [13] it was > 100 µM (inactive). The GI50 in [14] is > 100 µM (inactive); in experiment [15], > 100 µM; in [16], > 100 µM (inactive); in [17], > 100 µM (inactive).
As for `O=C(/C=C/c1cccs1)c1ccc(Cl)s1`, the GI50 is 56 µM (inactive) in experiment [1]; 17.2 µM (inactive) in experiment [2]; > 100 µM (inactive) in [3]; 67 µM (inactive) in [4]; > 10 µM (inactive) in [5]; > 10 µM (inactive) in experiment [6]. Further, the GI50 is 83.4 µM (inactive) in experiment [7]; 18.2 µM (inactive) in [8]; > 100 µM (inactive) in experiment [9]; 23.3 µM (inactive) in experiment [10]; > 100 µM (inactive) in experiment [11]; 25.1 µM (inactive) in experiment [18]. Besides, the GI50 in experiment [12] is > 10 µM (inactive); in [13] it was 28.6 µM (inactive); in [14] it was 45 µM (inactive); in experiment [15], 18.2 µM; in [16] it was 48.5 µM (inactive).
